How the values were obtained:
[1] = system: ARID1A wild-type (WT) and knockout (ARID1A−/−) MCF1A cells; assay: IncuCyte growth (confluency), isogenic ARID1A WT and -/- MCF10A; assay type: cell-based, human; details: MCF10A ARID1A−/− vs WT
Description: FIG. 11B: Dose-response curves of isogenic ARID1A wild-type (WT) and knockout (ARID1A−/−) MCF1A cells treated with AZD-6738. Cell growth (confluency) was measured by IncuCyte automated microscopy. Data (circles) were fitted to a four-parameter dose-response model (solid lines).
(§1) In addition to the genes disclosed herein, we investigated ATRi sensitivity to the loss of ARID1A, which was previously described in Williamson et al., Nat. Comms., 7:13837, 2016, as a bona fide biomarker of ATRi sensitivity. Three isogenic ARID1A wild-type (WT) and ARID1A-deficient (ARID1A−/−) human cell line pairs were employed: HCT116, MCF10A and BEAS2B. […] To strengthen this observation, we assembled a panel of tissue-matched cancer cell lines that were either ARID1A WT or carried deleterious ARID1A alterations (LOF) and measured their sensitivity to AZD-6738. […] In aggregate, we believe that the genes named in this Application present a list of bona fide determinants of ATRi sensitivity as opposed to certain 5 biomarkers described in the scientific literature.

[2] = system: ARID1A wild-type (WT) and knockout (ARID1A−/−) BEAS2B cells; assay: IncuCyte growth (confluency), isogenic ARID1A WT and -/- BEAS2B; assay type: cell-based, human; details: BEAS2B ARID1A−/− vs WT
Description: FIG. 11C: Dose-response curves of isogenic ARID1A wild-type (WT) and knockout (ARID1A−/−) BEAS2B cells treated with AZD-6738. Cell growth (confluency) was measured by IncuCyte automated microscopy. Data (circles) were fitted to a four-parameter dose-response model (solid lines).
as §1

[3] = system: cancer cell lines either wild-type for ARID1A (WT) or carrying deleterious ARID1A alterations (LOF); assay: IncuCyte growth assays in ARID1A WT and LOF cancer cell line panel; assay type: cell-based; details: tissue-matched cancer cell line panel
Source text: FIG. 12: EC50 values for the ATRI AZD-6738 from IncuCyte growth assays in a panel of cancer cell lines either wild-type for ARID1A (WT) or carrying deleterious ARID1A alterations (LOF). Data (circles) from two independent experiments with mean (bars)±SD (error bars).
as §1

[4] = system: ARID1A wild-type (WT) and knockout (ARID1A−/−) HCT116 cells; assay: IncuCyte growth (confluency), isogenic ARID1A WT and -/- HCT116; assay type: cell-based, human; details: HCT116 ARID1A−/− vs WT
Description: FIG. 11A: Dose-response curves of isogenic ARID1A wild-type (WT) and knockout (ARID1A−/−) HCT116 cells treated with AZD-6738. Cell growth (confluency) was measured by IncuCyte automated microscopy. Data (circles) were fitted to a four-parameter dose-response model (solid lines).
as §1

C[C@@H]1COCCN1c1cc(C2([S@](C)(=N)=O)CC2)nc(-c2cc[nH]c3nccc2-3)n1 [AZD-6738]
Sensitivity upon ARID1A deficiency [1]: did not lead to sensitivity | Sensitivity upon ARID1A deficiency [2]: did not lead to sensitivity | Sensitivity (EC50) of ARID1A LOF vs ARID1A WT cell lines [3]: no significant trend towards higher ATRi sensitivity in ARID1A LOF cell lines | Sensitivity upon ARID1A deficiency [4]: did not lead to sensitivity
